Tests used:
[1] = target: T1, panel of 442 kinases (Homo sapiens, UniProt P42336, E545A); assay type: binding; conditions: Compound Concentration 10 µM
T1 construct: purchased KINOMEscan
Excerpt: (§1) We assessed the selectivity of members of this scaffold using the KINOMEscan methodology across a near comprehensive panel of 442 kinases [[18,27]].

[2] = target: T2, panel of 442 kinases (Homo sapiens, UniProt O14920); assay type: binding; conditions: Compound Concentration 10 µM
T2 construct: purchased KINOMEscan
T2 sequence (O14920 1-756): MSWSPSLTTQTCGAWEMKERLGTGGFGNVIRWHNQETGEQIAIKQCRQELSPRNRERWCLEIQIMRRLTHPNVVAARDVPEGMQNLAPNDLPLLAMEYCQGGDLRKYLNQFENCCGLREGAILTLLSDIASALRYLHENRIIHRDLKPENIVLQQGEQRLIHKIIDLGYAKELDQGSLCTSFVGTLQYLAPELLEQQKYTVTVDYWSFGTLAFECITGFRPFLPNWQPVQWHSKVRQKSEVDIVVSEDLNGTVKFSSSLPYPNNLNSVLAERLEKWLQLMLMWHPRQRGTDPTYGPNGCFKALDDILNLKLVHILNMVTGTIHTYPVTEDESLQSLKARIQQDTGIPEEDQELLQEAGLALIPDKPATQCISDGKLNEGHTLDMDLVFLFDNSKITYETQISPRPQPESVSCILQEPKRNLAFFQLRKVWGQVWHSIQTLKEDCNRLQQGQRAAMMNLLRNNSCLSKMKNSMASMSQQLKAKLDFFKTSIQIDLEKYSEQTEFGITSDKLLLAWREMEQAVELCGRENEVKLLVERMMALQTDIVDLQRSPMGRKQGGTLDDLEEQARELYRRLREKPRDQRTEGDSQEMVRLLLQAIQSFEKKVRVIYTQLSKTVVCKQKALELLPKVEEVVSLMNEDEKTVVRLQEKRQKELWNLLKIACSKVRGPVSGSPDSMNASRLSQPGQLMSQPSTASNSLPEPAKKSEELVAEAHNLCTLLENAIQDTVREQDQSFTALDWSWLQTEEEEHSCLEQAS
Excerpt: as §1

T1 sequence (P42336 whole entry E545A): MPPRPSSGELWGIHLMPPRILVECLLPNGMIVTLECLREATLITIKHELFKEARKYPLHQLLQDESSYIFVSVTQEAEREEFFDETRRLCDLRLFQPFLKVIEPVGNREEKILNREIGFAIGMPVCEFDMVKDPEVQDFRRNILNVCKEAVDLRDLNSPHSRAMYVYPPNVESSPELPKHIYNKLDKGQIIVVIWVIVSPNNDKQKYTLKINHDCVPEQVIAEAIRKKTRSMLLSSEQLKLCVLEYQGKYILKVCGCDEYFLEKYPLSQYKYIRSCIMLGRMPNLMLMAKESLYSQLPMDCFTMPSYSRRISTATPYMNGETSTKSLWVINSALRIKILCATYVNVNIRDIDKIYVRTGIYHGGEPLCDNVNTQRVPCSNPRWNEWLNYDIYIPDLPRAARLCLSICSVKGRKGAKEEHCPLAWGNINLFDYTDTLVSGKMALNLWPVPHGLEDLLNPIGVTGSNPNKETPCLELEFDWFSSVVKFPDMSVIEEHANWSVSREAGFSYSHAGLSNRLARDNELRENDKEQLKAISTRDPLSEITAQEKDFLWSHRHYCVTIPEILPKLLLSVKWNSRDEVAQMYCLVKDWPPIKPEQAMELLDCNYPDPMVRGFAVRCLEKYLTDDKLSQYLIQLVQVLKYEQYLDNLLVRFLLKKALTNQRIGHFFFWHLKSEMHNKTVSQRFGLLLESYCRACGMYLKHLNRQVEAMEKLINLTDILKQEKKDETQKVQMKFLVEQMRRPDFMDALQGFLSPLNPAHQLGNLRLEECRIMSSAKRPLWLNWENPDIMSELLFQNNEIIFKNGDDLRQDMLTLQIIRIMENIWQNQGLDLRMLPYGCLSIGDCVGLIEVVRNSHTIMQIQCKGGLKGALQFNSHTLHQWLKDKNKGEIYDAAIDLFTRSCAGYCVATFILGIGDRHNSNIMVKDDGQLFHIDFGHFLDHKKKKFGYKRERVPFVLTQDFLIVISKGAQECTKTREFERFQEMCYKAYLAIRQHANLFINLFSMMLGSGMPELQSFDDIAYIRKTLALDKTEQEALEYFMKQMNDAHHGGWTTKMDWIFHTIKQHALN

SMILES | KINOMEscan: PIK3CA(E545A) [1] | KINOMEscan: IKK-beta [2]
COc1cc(C(=O)N2CCC(N3CCN(C)CC3)CC2)ccc1Nc1ncc2c(n1)N1CCc3cccc(c31)C(=O)N2C [Compound 24] | 68 | –
CCOc1cc(C(=O)N2CCC(N3CCN(C)CC3)CC2)ccc1Nc1ncc2c(n1)N(C1CCCC1)c1ccccc1C(=O)N2C [Compound 26] | 91 | 99
COc1cc(C(=O)N2CCC(N3CCN(C)CC3)CC2)ccc1Nc1ncc2c(n1)N(C1CCCC1)c1ccccc1C(=O)N2C [Compound 25, 11-cyclopentyl-2-((2-methoxy-4-(4-(4-methylpiperazin-1-yl)piperidine-1-carbonyl)phenyl)amino)-5-methyl-5H-benzo[e]pyrimido[5,4-b][1,4]diazepin-6(11H)-one] | 85 | 100
COc1cc(C(=O)N2CCC(N3CCN(C)CC3)CC2)ccc1Nc1ncc2c(n1)N(C)c1ccccc1C(=O)N2C [15 (LRRK2-IN-1)] | 98 | 89
